In general, IC50 refers to the concentration needed to halve the response being measured.

Among the data in patent US20240174662A1, “SMALL MOLECULE INHIBITORS OF SALT INDUCIBLE KINASES” (Janssen Biotech, Inc., priority 2021, published 2024) are IC50 values, retold here.

“And” between values parts separate entries of the source, which are not always exact repeats. Identical values can stand only once.

This assay addresses SIK2 (Homo sapiens (Human), UniProt Q9H0K1). The assay is described as follows: SIK2 Enzymatic Assay Version 2 (High ATP). It counts as biochemical. To be noted: 3 mM ATP and 200 μM HDAC5tide final, ADP-Glo Max luminescence. Summed up:
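Run at room temperature; SIK2 enzyme at 6 nM (2× final) preincubated with compound 30 min before reaction. ADP formation detected by ADP-Glo Max (2 h reagent, 1 h detection) with luminescence read-out.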
(In ADP-Glo the light output rises with the ADP produced.)

Chain of SIK2 (Q9H0K1 whole entry, species assumed): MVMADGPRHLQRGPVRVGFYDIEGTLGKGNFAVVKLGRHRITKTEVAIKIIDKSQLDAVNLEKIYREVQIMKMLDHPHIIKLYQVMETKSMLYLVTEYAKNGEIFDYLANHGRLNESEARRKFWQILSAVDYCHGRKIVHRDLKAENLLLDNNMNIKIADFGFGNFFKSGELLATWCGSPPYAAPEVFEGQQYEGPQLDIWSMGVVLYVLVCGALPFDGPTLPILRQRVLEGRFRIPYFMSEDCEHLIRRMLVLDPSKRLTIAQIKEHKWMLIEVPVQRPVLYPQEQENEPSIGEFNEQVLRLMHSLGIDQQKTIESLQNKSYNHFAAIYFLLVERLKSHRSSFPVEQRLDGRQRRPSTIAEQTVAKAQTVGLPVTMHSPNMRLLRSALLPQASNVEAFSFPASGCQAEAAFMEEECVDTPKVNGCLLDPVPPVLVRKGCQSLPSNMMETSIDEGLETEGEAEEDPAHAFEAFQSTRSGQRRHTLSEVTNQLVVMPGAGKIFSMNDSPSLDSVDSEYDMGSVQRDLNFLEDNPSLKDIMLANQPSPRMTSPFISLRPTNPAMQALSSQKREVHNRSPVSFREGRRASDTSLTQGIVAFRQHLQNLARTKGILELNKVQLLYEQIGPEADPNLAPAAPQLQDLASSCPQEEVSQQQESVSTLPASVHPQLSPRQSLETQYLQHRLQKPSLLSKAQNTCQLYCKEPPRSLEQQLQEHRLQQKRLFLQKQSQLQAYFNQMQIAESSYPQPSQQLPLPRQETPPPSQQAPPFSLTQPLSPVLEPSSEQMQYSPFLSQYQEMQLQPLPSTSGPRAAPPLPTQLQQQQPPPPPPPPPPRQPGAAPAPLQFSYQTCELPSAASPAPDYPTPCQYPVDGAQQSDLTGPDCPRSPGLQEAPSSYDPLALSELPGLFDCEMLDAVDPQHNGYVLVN

Compound `CN1CC[C@H](Oc2cnn(C(F)F)c2-c2ccn3nc(NC(=O)C4CC4)cc3c2)C1` [Example 470, N-[5-[2-(difluoromethyl)-4-[(3S)-1-methylpyrrolidin-3-yl]oxy-pyrazol-3-yl]pyrazolo[1,5-a]pyridin-2-yl]cyclopropanecarboxamide] had an IC50 of 143 nM.

`Cc1onc(OC[C@H]2CN(C)CCO2)c1-c1ccn2nc(NC(=O)C3CC3)cc2c1` [Example 79, N-[5-[5-methyl-3-[[(2R)-4-methylmorpholin-2-yl]methoxy]isoxazol-4-yl]pyrazolo[1,5-a]pyridin-2-yl]cyclopropanecarboxamide] came in with an IC50 of 120 nM.

In turn, `Cc1onc(OC[C@H]2NCC2(C)C)c1-c1ccn2nc(NC(=O)C3CC3)cc2c1` [Example 89, N-[5-[3-[[(2S)-3,3-dimethylazetidin-2-yl]methoxy]-5-methyl-isoxazol-4-yl]pyrazolo[1,5-a]pyridin-2-yl]cyclopropanecarboxamide] registered a 50% inhibitory concentration (IC50) of 15.9 nM.

`CN1CC[C@@H](COc2cnn(Cc3ccccc3)c2-c2ccn3nc(NC(=O)C4CC4)cc3c2)C1` [Example 491, N-[5-[2-benzyl-4-[[(3R)-1-methylpyrrolidin-3-yl]methoxy]pyrazol-3-yl]pyrazolo[1,5-a]pyridin-2-yl]cyclopropanecarboxamide]: the IC50 was more than 50000 nM.

`CC(C)N1CC[C@H]1COc1cnn(C)c1-c1ccn2nc(NC(=O)C3CC3)cc2c1` [Example 48, N-[5-[4-[[(2S)-1-isopropylazetidin-2-yl]methoxy]-2-methyl-pyrazol-3-yl]pyrazolo[1,5-a]pyridin-2-yl]cyclopropanecarboxamide] came in with a half-maximal inhibitory concentration (IC50) of 269 nM.

Compound `Cn1ncc(OC2CCNCC2)c1-c1ccn2nc(NC(=O)C3CC3)cc2c1` [Example 407, N-[5-[2-methyl-4-(4-piperidyloxy)pyrazol-3-yl]pyrazolo[1,5-a]pyridin-2-yl]cyclopropanecarboxamide] showed an IC50 of 86 nM.

Turning to `CN1CC[C@H](Oc2cnn(C)c2-c2ccn3nc(Nc4cnc(C(F)(F)F)cn4)cc3c2)C1` [Example 453, 5-[2-methyl-4-[(3S)-1-methylpyrrolidin-3-yl]oxy-pyrazol-3-yl]-N-[5-(trifluoromethyl)pyrazin-2-yl]pyrazolo[1,5-a]pyridin-2-amine], the concentration for half-maximal inhibition (IC50) came out at 162 nM.

With `Cc1onc(O[C@@H]2CCNC[C@@H]2F)c1-c1ccn2nc(NC(=O)C3CC3)cc2c1` (single isomer, unassigned) [Example 215, N-(5-(3-(((3*S,4*R)-3-fluoropiperidin-4-yl)oxy)-5-methylisoxazol-4-yl)pyrazolo[1,5-a]pyridin-2-yl)cyclopropanecarboxamide], the midpoint of inhibition, the IC50, lay at 27.5 nM.

In the case of `Cc1cc(Nc2cc3cc(-c4c(OC[C@@H]5CCN5C)cnn4C)ccn3n2)nc(C)n1` [Example 139, N-(2,6-dimethylpyrimidin-4-yl)-5-[2-methyl-4-[[(2S)-1-methylazetidin-2-yl]methoxy]pyrazol-3-yl]pyrazolo[1,5-a]pyridin-2-amine], half-maximal inhibition (IC50) required 19.7 nM.

The compound `CCN1CC[C@@H]1COc1cnn(C(F)F)c1-c1ccn2nc(Nc3ccnc(OC)n3)cc2c1` [Example 481, 5-[2-(difluoromethyl)-4-[[(2R)-1-ethylazetidin-2-yl]methoxy]pyrazol-3-yl]-N-(2-methoxypyrimidin-4-yl)pyrazolo[1,5-a]pyridin-2-amine] showed an IC50 of 17.6 nM. This IC50 and that of the compound before are within 1.5-fold of each other.

`Cc1ccc(Nc2cc3cc(-c4c(OC[C@H]5CCN5)cnn4C)ccn3n2)nn1` [Example 392, 5-[4-[[(2R)-azetidin-2-yl]methoxy]-2-methyl-pyrazol-3-yl]-N-(6-methylpyridazin-3-yl)pyrazolo[1,5-a]pyridin-2-amine]: 73 nM corresponded to half-maximal inhibition (IC50).

`CCC1(OCc2cnn(C)c2-c2ccn3nc(NC(=O)C4CC4)cc3c2)CN(C)C1` [Example 468, N-[5-[4-[(3-ethyl-1-methyl-azetidin-3-yl)oxymethyl]-2-methyl-pyrazol-3-yl]pyrazolo[1,5-a]pyridin-2-yl]cyclopropanecarboxamide] returned an IC50 of 81.7 nM.

Compound `CN1CC[C@H](Oc2cnn(C)c2-c2ccn3nc(Nc4cc5c(nn4)CCC5)cc3c2)C1` [Example 269, N-(6,7-dihydro-5H-cyclopenta[c]pyridazin-3-yl)-5-[2-methyl-4-[(3S)-1-methylpyrrolidin-3-yl]oxy-pyrazol-3-yl]pyrazolo[1,5-a]pyridin-2-amine] gave an IC50 of 33.2 nM.

`Cc1onc(OC[C@H]2C[C@H](N)C2)c1-c1ccn2nc(NC(=O)C3CC3)cc2c1` [Example 387, N-[5-[3-[(3-aminocyclobutyl)methoxy]-5-methyl-isoxazol-4-yl]pyrazolo[1,5-a]pyridin-2-yl]cyclopropanecarboxamide] had an IC50 of 85.8 nM. Against the preceding compound, the IC50 is about 2.6-fold higher.

Turning to `Cc1cc(Nc2cc3cc(-c4c(OC[C@H]5OCC[C@@H]5O)cnn4C)ccn3n2)nc(C)n1` [Example 300, (2R,3S)-2-[[5-[2-[(2,6-dimethylpyrimidin-4-yl)amino]pyrazolo[1,5-a]pyridin-5-yl]-1-methyl-pyrazol-4-yl]oxymethyl]tetrahydrofuran-3-ol], the IC50 was found to be 10.8 nM.

As for `Cc1cc(Nc2cc3cc(-c4c(O[C@@H]5CNC[C@@H]5F)cnn4C(F)F)ccn3n2)nc(C)n1` [Example 32, 5-[2-(difluoromethyl)-4-[(3R,4S)-4-fluoropyrrolidin-3-yl]oxy-pyrazol-3-yl]-N-(2,6-dimethylpyrimidin-4-yl)pyrazolo[1,5-a]pyridin-2-amine], the IC50 was determined as 6.6 nM.

The compound `CN1CC[C@@H]1COc1cnn(C)c1-c1ccn2nc(Nc3ccc(C(=O)NCCC#N)cn3)cc2c1` [Example 135, N-(2-cyanoethyl)-6-[[5-[2-methyl-4-[[(2R)-1-methylazetidin-2-yl]methoxy]pyrazol-3-yl]pyrazolo[1,5-a]pyridin-2-yl]amino]pyridine-3-carboxamide] registered an IC50 of 5.8 nM.

In the case of `COc1nc(C)cc(Nc2cc3cc(-c4c(OC[C@H]5CCN5C)cnn4C)ccn3n2)n1` [Example 146, N-(2-methoxy-6-methyl-pyrimidin-4-yl)-5-[2-methyl-4-[[(2R)-1-methylazetidin-2-yl]methoxy]pyrazol-3-yl]pyrazolo[1,5-a]pyridin-2-amine], the IC50 is less than 0.847 nM.

`Cc1cc(Nc2cc3cc(-c4c(O[C@H]5C[C@@H]6CC[C@H]5O6)cnn4C)ccn3n2)nc(C)n1` (single isomer, unassigned) [Example 441, (1*R, 2*S, 4*S)—N-(2,6-dimethylpyrimidin-4-yl)-5-[2-methyl-4-(7-oxabicyclo[2.2.1]heptan-3-yloxy)pyrazol-3-yl]pyrazolo[1,5-a]pyridin-2-amine] showed an IC50 of 72.9 nM.

On to `CN1CC[C@@H]1COc1cnn(C)c1-c1ccn2nc(Nc3ccc4nccn4n3)cc2c1` [Example 149, N-[5-[2-methyl-4-[[(2R)-1-methylazetidin-2-yl]methoxy]pyrazol-3-yl]pyrazolo[1,5-a]pyridin-2-yl]imidazo[1,2-b]pyridazin-6-amine], for which it took 2 nM to reach half-maximal inhibition (IC50).

As for `CCN1CC[C@@H]1COc1cnn(C(F)F)c1-c1ccn2nc(Nc3ccc(C)nn3)cc2c1` [Example 480, 5-[2-(difluoromethyl)-4-[[(2R)-1-ethylazetidin-2-yl]methoxy]pyrazol-3-yl]-N-(6-methylpyridazin-3-yl)pyrazolo[1,5-a]pyridin-2-amine], the IC50 was 10 nM.

In the case of `Cc1onc(OC[C@](C)(N)c2ccccc2)c1-c1ccn2nc(NC(=O)C3CC3)cc2c1` [Example 326, N-[5-[3-[(2R)-2-amino-2-phenyl-propoxy]-5-methyl-isoxazol-4-yl]pyrazolo[1,5-a]pyridin-2-yl]cyclopropanecarboxamide], the IC50 was 60 nM.

For the compound `CCN1CC[C@@H]1COc1cnn(C(F)F)c1-c1ccn2nc(Nc3cnc(C)cn3)cc2c1` [Example 264, 5-[2-(difluoromethyl)-4-[[(2R)-1-ethylazetidin-2-yl]methoxy]pyrazol-3-yl]-N-(5-methylpyrazin-2-yl)pyrazolo[1,5-a]pyridin-2-amine], 7.7 nM corresponded to half-maximal inhibition (IC50).

In the case of `CN1CC[C@@H]1COc1cnn(C)c1-c1ccn2nc(Nc3ccc(=O)n(C)n3)cc2c1` [Example 143, 2-methyl-6-[[5-[2-methyl-4-[[(2R)-1-methylazetidin-2-yl]methoxy]pyrazol-3-yl]pyrazolo[1,5-a]pyridin-2-yl]amino]pyridazin-3-one], the IC50 came to 2.4 nM.

In turn, `Cc1cc(C(=O)NCC(C)(C)O)cc(Nc2cc3cc(-c4c(OC[C@H]5CCN5C)cnn4C)ccn3n2)n1` [Example 111, N-(2-hydroxy-2-methyl-propyl)-2-methyl-6-[[5-[2-methyl-4-[[(2R)-1-methylazetidin-2-yl]methoxy]pyrazol-3-yl]pyrazolo[1,5-a]pyridin-2-yl]amino]pyridine-4-carboxamide] displayed an IC50 of 1.3 nM. Compared with the last compound, the IC50 is about 1.8-fold lower.

As to `COC1(COc2cnn(C(F)F)c2-c2ccn3nc(Nc4cc(C)nc(C)n4)cc3c2)CCNC1` (racemic) [Example 100, (RS)-5-[2-(difluoromethyl)-4-[(3-methoxypyrrolidin-3-yl)methoxy]pyrazol-3-yl]-N-(2,6-dimethylpyrimidin-4-yl)pyrazolo[1,5-a]pyridin-2-amine], the IC50 is 12.4 nM.

With `CCN1CC[C@@H]1COc1cnn(C)c1-c1ccn2nc(Nc3cnc(C(F)(F)F)cn3)cc2c1` [Example 160, 5-[4-[[(2R)-1-ethylazetidin-2-yl]methoxy]-2-methyl-pyrazol-3-yl]-N-[5-(trifluoromethyl)pyrazin-2-yl]pyrazolo[1,5-a]pyridin-2-amine], the IC50 is 2.5 nM and 3.6 nM.

The compound `Cc1cc(Nc2cc3cc(-c4c(OC[C@H]5CCN5C)cnn4C)ccn3n2)nn(C)c1=O` [Example 152, 2,4-dimethyl-6-[[5-[2-methyl-4-[[(2R)-1-methylazetidin-2-yl]methoxy]pyrazol-3-yl]pyrazolo[1,5-a]pyridin-2-yl]amino]pyridazin-3-one] came in with an IC50 of less than 0.847 nM.

In turn, `CN1CC[C@H](Oc2cnn(C)c2-c2ccc3nc(NC(=O)C4CC4)cn3c2)C1` [Example 472, N-[6-[2-methyl-4-[(3S)-1-methylpyrrolidin-3-yl]oxy-pyrazol-3-yl]imidazo[1,2-a]pyridin-2-yl]cyclopropanecarboxamide] had an IC50 of 106 nM.
